These molecules were tested against T1, human P2X7 (UniProt Q99572) (assay: Intracellular Calcium Flux (FLIPR) Assay).
T1 sequence (Q99572 1-595): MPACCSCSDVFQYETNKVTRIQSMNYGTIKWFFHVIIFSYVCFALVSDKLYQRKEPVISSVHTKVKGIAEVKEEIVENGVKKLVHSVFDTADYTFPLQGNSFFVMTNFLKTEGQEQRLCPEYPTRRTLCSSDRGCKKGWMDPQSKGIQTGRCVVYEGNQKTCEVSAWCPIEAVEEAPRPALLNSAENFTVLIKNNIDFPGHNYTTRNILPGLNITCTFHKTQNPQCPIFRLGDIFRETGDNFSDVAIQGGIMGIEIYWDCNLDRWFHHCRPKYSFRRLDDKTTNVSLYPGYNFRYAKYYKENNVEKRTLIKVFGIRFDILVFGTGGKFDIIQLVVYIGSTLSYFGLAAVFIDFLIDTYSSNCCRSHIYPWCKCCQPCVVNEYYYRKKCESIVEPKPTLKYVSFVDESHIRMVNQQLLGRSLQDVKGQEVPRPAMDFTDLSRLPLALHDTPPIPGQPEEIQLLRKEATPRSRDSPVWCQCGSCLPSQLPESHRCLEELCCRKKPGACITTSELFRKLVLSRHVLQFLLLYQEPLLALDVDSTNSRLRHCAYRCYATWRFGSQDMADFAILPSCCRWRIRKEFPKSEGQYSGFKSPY
Format: cell-based
Experimental: Intracellular Calcium Flux (FLIPR) Assay
Compound and Reagent Preparation
Stock solutions of compounds were prepared from powders as a 10 mM DMSO stock solution. These solutions were stored at RT during the two week period of these experiments to prevent freeze-thaw of the DMSO stocks. The DMSO stocks were added to the appropriate assay buffer at a concentration of 10 μM, and then diluted serially to the final concentrations that were tested. No observable precipitate was formed at any time during this process. The aqueous solutions of compounds as well as ATP (Sigma A7699) and BzATP (Sigma B6396) were prepared fresh for each day of experiment.
1321N1 cells stably expressing the full length human P2X7 gene (1321N1-hP2X7) and HEK293 cells stably expressing the full length rat P2X7 gene (HEK293-rP2X7) were obtained from the Roche Cell Culture Facility. 1321N1-hP2X7 cells were grown in Dulbecco's Modified Eagle's Medium (DMEM) high glucose supplemented with 10% FBS and […] G418. HEK293-rP2X7 cells were grown in DMEM/F-12 supplemented with 10% FBS, 1 mM CaCl2, 2 mM MgCl2, 2 mM L-Glutamine and […] G418. Cells were split such that they never became >70% confluent.
Intracellular Calcium Flux (FLIPR)
On the day prior to the experiment, 1321N1-hP2X7 or HEK293-rP2X7 cells were released into suspension with calcium-free PBS+Versene and washed by centrifugation with calcium-free PBS to remove the Versene. Cells were resuspended in growth medium at a density of 2.5×10^5 cells/mL and seeded into black walled, clear bottom 96 well plates (50,000 cells/well) approximately 18 hr prior to intracellular calcium flux experiments.
On the day of the experiment, plates were washed with FLIPR buffer (calcium- and magnesium-free Hank's Balanced Salt Solution (HBSS) supplemented with 10 mM Hepes, 2.5 mM probenecid and 2 mM calcium chloride) using a BIO-TEK 96 channel plate washer and incubated with […] fluo-3 dye at 37° C. for one hr. The dye was then removed by plate washing and the cells were allowed to equilibrate for 20 min at room temperature with antagonist or vehicle (FLIPR buffer). Agonist (100 μM BzATP final concentration for hP2X7; 5 μM BzATP final concentration or rP2X7) was added online with the FLIPR and fluorescence measurements made at 1 sec intervals for 60 sec followed by 3 sec intervals for a further 4 min (5 min total). A final addition of 5 μM ionomycin was made and the maximal BzATP-evoked fluorescence normalized to the maximal ionomycin-evoked fluorescence.

SMILES | pIC50
COc1cc(Br)c(Nc2nnc3n2C(c2ccccc2)CCC3)cc1OC (stereo not shown) [Compound 1, (2-Bromo-4,5-dimethoxy-phenyl)-(5-phenyl-5,6,7,8-tetrahydro-[1,2,4]triazolo[4,3-a]pyridin-3-yl)-amine] | 7.25
CCc1c(Nc2nnc3n2C(c2ccc(F)cc2)CCC3)ccc2ncccc12 (stereo not shown) [Compound 2, (5-Ethyl-quinolin-6-yl)-[5-(4-fluoro-phenyl)-5,6,7,8-tetrahydro-[1,2,4]triazolo[4,3-a]pyridin-3-yl]-amine] | 7.52
COc1cc(C)c(Nc2nnc3n2[C@H](c2ccc(F)cc2)CCC3)cc1OC [Compound 4, (4,5-Dimethoxy-2-methyl-phenyl)-[(S)-5-(4-fluoro-phenyl)-5,6,7,8-tetrahydro-[1,2,4]triazolo[4,3-a]pyridin-3-yl]-amine] | 7.98
COc1cc(Br)c(Nc2nnc3n2C(c2ccc(F)cc2)COC3)cc1OC (stereo not shown) [Compound 5, (2-Bromo-4,5-dimethoxy-phenyl)-[5-(4-fluoro-phenyl)-5,6-dihydro-8H-[1,2,4]triazolo[3,4-c][1,4]oxazin-3-yl]-amine] | 7.775
Cc1cc(Cl)c(OCCO)cc1Nc1nnc2n1C(c1ccc(F)cc1)CCC2 (stereo not shown) [Compound 6, 2-{2-Chloro-5-[5-(4-fluoro-phenyl)-5,6,7,8-tetrahydro-[1,2,4]triazolo[4,3-a]pyridin-3-ylamino]-4-methyl-phenoxy}-ethanol] | 6.99
COc1cc(Br)c(Nc2nnc3n2C(c2ccccc2)CC2(C3)OCCO2)cc1OC (stereo not shown) [Compound 7, (2-Bromo-4,5-dimethoxy-phenyl)-(7,7′-spiro-ethylenedioxy-5-phenyl-5,6,7,8-tetrahydro-[1,2,4]triazolo[4,3-a]pyridin-3-yl)-amine] | 6.2
CCc1c(Nc2nnc3n2[C@H](c2ccc(F)cc2)CCC3)ccc2ncccc12 [Compound 8, (5-Ethyl-quinolin-6-yl)-[(S)-5-(4-fluoro-phenyl)-5,6,7,8-tetrahydro-[1,2,4]triazolo[4,3-a]pyridin-3-yl]-amine] | 7.693
CCc1c(Nc2nnc3n2[C@@H](c2ccc(F)cc2)CCC3)ccc2ncccc12 [Compound 9, (5-Ethyl-quinolin-6-yl)-[(R)-5-(4-fluoro-phenyl)-5,6,7,8-tetrahydro-[1,2,4]triazolo[4,3-a]pyridin-3-yl]-amine] | 5.17
COc1cc(Br)c(Nc2nnc3n2C(c2ccc(F)cc2)CSC3)cc1OC (stereo not shown) [Compound 10, (2-Bromo-4,5-dimethoxy-phenyl)-[5-(4-fluoro-phenyl)-5,6-dihydro-8H-[1,2,4]triazolo[3,4-c][1,4]thiazin-3-yl]-amine] | 7.625
Cc1ccc2ncccc2c1Nc1nnc2n1[C@H](c1ccccc1)COC2 [Compound 11, (6-Methyl-quinolin-5-yl)-((R)-5-phenyl-5,6-dihydro-8H-[1,2,4]triazolo[3,4-c][1,4]oxazin-3-yl)-amine] | 7.442
COc1cc(Br)c(Nc2nnc3n2[C@@H](c2ccc(F)cc2)COC3)cc1OC [Compound 12, (2-Bromo-4,5-dimethoxy-phenyl)-[(S)-5-(4-fluoro-phenyl)-5,6-dihydro-8H-[1,2,4]triazolo[3,4-c][1,4]oxazin-3-yl]-amine] | 5.1167
COc1cc(Br)c(Nc2nnc3n2[C@H](c2ccc(F)cc2)COC3)cc1OC [Compound 13, (2-Bromo-4,5-dimethoxy-phenyl)-[(R)-5-(4-fluoro-phenyl)-5,6-dihydro-8H-[1,2,4]triazolo[3,4-c][1,4]oxazin-3-yl]-amine] | 7.75
Cc1cc(-c2ccc(C)c(Nc3nnc4n3[C@H](c3ccc(F)cc3)COC4)c2)n[nH]1 [Compound 14, [(R)-5-(4-Fluoro-phenyl)-5,6-dihydro-8H-[1,2,4]triazolo[3,4-c][1,4]oxazin-3-yl]-[2-methyl-5-(5-methyl-1H-pyrazol-3-yl)-phenyl]-amine] | 7.62
Cc1cc(Cl)c(OCCO)cc1Nc1nnc2n1[C@H](c1ccc(F)cc1)CCC2 [Compound 15, 2-{2-Chloro-5-[(S)-5-(4-fluoro-phenyl)-5,6,7,8-tetrahydro-[1,2,4]triazolo[4,3-a]pyridin-3-ylamino]-4-methyl-phenoxy}-ethanol] | 7.133
COc1cc(Br)c(Nc2nnc3n2C(c2ccc(F)cc2)C[S+]([O-])C3)cc1OC (stereo not shown) [Compound 16, (2-Bromo-4,5-dimethoxy-phenyl)-[5-(4-fluoro-phenyl)-7-oxo-5,6,7,8-tetrahydro-7λ^4-[1,2,4]triazolo[3,4-c][1,4]thiazin-3-yl]-amine] | 7.4167
COc1cc(Br)c(Nc2nnc3n2C(c2ccc(F)cc2)CNC3)cc1OC (stereo not shown) [Compound 17, (2-Bromo-4,5-dimethoxy-phenyl)-[5-(4-fluoro-phenyl)-5,6,7,8-tetrahydro-[1,2,4]triazolo[4,3-a]pyrazin-3-yl]-amine] | 7.3267
Fc1cccc(C2COCc3nnc(Nc4cccc5ncccc45)n32)c1 (stereo not shown) [Compound 20, [5-(3-Fluoro-phenyl)-5,6-dihydro-8H-[1,2,4]triazolo[3,4-c][1,4]oxazin-3-yl]-quinolin-5-yl-amine] | 6.987
Cc1cnn(-c2ccc(C)c(Nc3nnc4n3[C@H](c3ccc(F)cc3)COC4)c2)c1 [Compound 22, [(R)-5-(4-Fluoro-phenyl)-5,6-dihydro-8H-[1,2,4]triazolo[3,4-c][1,4]oxazin-3-yl]-[2-methyl-5-(4-methyl-pyrazol-1-yl)-phenyl]-amine] | 7.855
COc1cc(C)c(Nc2nnc3n2C(C)(c2ccc(F)cc2)COC3)cc1OC (stereo not shown) [Compound 23, (4,5-Dimethoxy-2-methyl-phenyl)-[5-(4-fluoro-phenyl)-5-methyl-5,6-dihydro-8H-[1,2,4]triazolo[3,4-c][1,4]oxazin-3-yl]-amine] | 6.9
COc1cc(Br)c(Nc2nnc3n2C(c2ccc(F)cc2)CN(C(C)=O)C3)cc1OC (stereo not shown) [Compound 24, 1-[3-(2-Bromo-4,5-dimethoxy-phenylamino)-5-(4-fluoro-phenyl)-5,6-dihydro-8H-[1,2,4]triazolo[4,3-a]pyrazin-7-yl]-ethanone] | 6.945
Cc1ccc2ncccc2c1Nc1nnc2n1C(c1cccc(F)c1)COC2 (stereo not shown) [Compound 25, [5-(3-Fluoro-phenyl)-5,6-dihydro-8H-[1,2,4]triazolo[3,4-c][1,4]oxazin-3-yl]-(6-methyl-quinolin-5-yl)-amine] | 7.735
COc1cc(Br)c(Nc2nnc3n2C(c2ccc(F)cc2)CN(C)C3)cc1OC (stereo not shown) [Compound 26, (2-Bromo-4,5-dimethoxy-phenyl)-[5-(4-fluoro-phenyl)-7-methyl-5,6,7,8-tetrahydro-[1,2,4]triazolo[4,3-a]pyrazin-3-yl]-amine] | 7.32
Cc1ccc2c(Nc3nnc4n3[C@H](c3ccc(F)cc3)COC4)cccc2n1 [Compound 27, [(R)-5-(4-Fluoro-phenyl)-5,6-dihydro-8H-[1,2,4]triazolo[3,4-c][1,4]oxazin-3-yl]-(2-methyl-quinolin-5-yl)-amine] | 6.76
C[C@H](CO)N1Cc2c(Nc3nnc4n3C(c3cccc(F)c3)COC4)ccc(Cl)c2C1=O (stereo partly drawn) [Compound 28, 7-Chloro-4-[5-(3-fluoro-phenyl)-5,6-dihydro-8H-[1,2,4]triazolo[3,4-c][1,4]oxazin-3-ylamino]-2-((R)-2-hydroxy-1-methyl-ethyl)-2,3-dihydro-isoindol-1-one] | 5.625
Cc1cc(Cl)c(OCCO)cc1Nc1nnc2n1C(c1cccc(F)c1)COC2 (stereo not shown) [Compound 29, 2-{2-Chloro-5-[5-(3-fluoro-phenyl)-5,6-dihydro-8H-[1,2,4]triazolo[3,4-c][1,4]oxazin-3-ylamino]-4-methyl-phenoxy}-ethanol] | 7.13
